{"source": "paper PMC6259141", "about": "“Phytochemical and Cytotoxic Investigations of Alpinia mutica Rhizomes” (Molecules, 2011)", "key": {"[1]": {"system": "MCF7 (hormone-dependent breast carcinoma cell line)", "experiment": "in vitro neutral red cytotoxicity assay, MCF7", "conditions": "Homo sapiens, MCF7, read-out: Cytotoxic activity IC50, MCF7", "excerpt": "(§1) The in vitro cytotoxic activity was studied by the neutral red cytotoxicity assay [5]. KB (epidermoid carcinoma cell line), MCF7 (hormone-dependent breast carcinoma cell line), A549 (lung carcinoma cell line), CaSki (cervical carcinoma cell line), HCT116 (colon carcinoma cell line), HT29 (colon carcinoma cell line) and non-human fibroblast cell line (MRC 5) were purchased from the American Tissue Culture Collection (ATCC)."}, "[2]": {"experiment": "in vitro neutral red cytotoxicity assay, MRC5", "conditions": "human, MRC5 fibroblast cells (normal, non-cancer)", "excerpt": "as §1"}, "[3]": {"system": "HCT116 (colon carcinoma cell line)", "experiment": "in vitro neutral red cytotoxicity assay, HCT116", "conditions": "Homo sapiens, HCT-116, read-out: Cytotoxic activity IC50, HCT116", "excerpt": "as §1"}, "[4]": {"system": "KB (epidermoid carcinoma cell line)", "experiment": "in vitro neutral red cytotoxicity assay, KB", "conditions": "Homo sapiens, read-out: Cytotoxic activity IC50, KB", "excerpt": "as §1"}, "[5]": {"system": "CaSki (cervical carcinoma cell line)", "experiment": "in vitro neutral red cytotoxicity assay, CaSki", "conditions": "Homo sapiens, Ca-Ski, read-out: Cytotoxic activity IC50, CaSki", "excerpt": "as §1"}, "[6]": {"system": "KB (epidermoid carcinoma cell line)", "excerpt": "as §1"}, "[7]": {"system": "HCT116 (colon carcinoma cell line)", "excerpt": "as §1"}, "[8]": {"system": "MCF7 (hormone-dependent breast carcinoma cell line)", "excerpt": "as §1"}, "[9]": {"system": "MRC5 fibroblast cell line (non-cancer)", "excerpt": "as §1"}, "[10]": {"system": "CaSki (cervical carcinoma cell line)", "excerpt": "as §1"}, "[11]": {"system": "A549 (lung carcinoma cell line)", "experiment": "in vitro neutral red cytotoxicity assay, A549", "type": "cell-based", "conditions": "Homo sapiens, A549 cells, averaged from three experiments, read-out: Cytotoxic activity IC50, A549", "excerpt": "as §1"}, "[12]": {"system": "HT29 (colon carcinoma cell line)", "experiment": "in vitro neutral red cytotoxicity assay, HT29", "type": "cell-based", "conditions": "Homo sapiens, HT-29, HT29 cells, averaged from three experiments, read-out: Cytotoxic activity IC50, HT29", "excerpt": "as §1"}}}
{"compound": "COc1cc(O)c(C(=O)/C=C/c2ccccc2)c(O)c1", "note": "[Pinostrobin chalcone (3), pinostrobin chalcone]", "values": [{"measurement": "IC50", "setting": "[1]", "result": "7.3 ± 0.6", "unit": "µg/mL"}, {"measurement": "IC50", "setting": "[2]", "result": "7.9 ± 0.8", "unit": "µg/mL"}, {"measurement": "IC50", "setting": "[3]", "result": "54.1 ± 4.6", "unit": "µg/mL"}, {"measurement": "IC50", "setting": "[4]", "result": "6.2 ± 0.2", "unit": "µg/mL"}, {"measurement": "IC50", "setting": "[5]", "result": "7.7 ± 0.2", "unit": "µg/mL"}]}
{"compound": "alpinetin [Alpinetin (4)]", "values": [{"measurement": "Cytotoxic activity IC50, KB", "setting": "[6]", "result": ">100", "unit": "µg/mL"}, {"measurement": "Cytotoxic activity IC50, HCT116", "setting": "[7]", "result": "39.6 ± 2.0", "unit": "µg/mL"}, {"measurement": "Cytotoxic activity IC50, MCF7", "setting": "[8]", "result": "> 100", "unit": "µg/mL"}, {"measurement": "Cytotoxic activity IC50, MRC5", "setting": "[9]", "result": "> 100", "unit": "µg/mL"}, {"measurement": "Cytotoxic activity IC50, CaSki", "setting": "[10]", "result": ">100", "unit": "µg/mL"}]}
{"compound": "COc1cc(O)c(C(=O)/C=C/c2ccccc2)c(OC)c1", "note": "[Flavokawin B (1), flavokawin B]", "values": [{"measurement": "IC50", "setting": "[1]", "result": "49.3 ± 1.8", "unit": "µg/mL"}, {"measurement": "IC50", "setting": "[2]", "result": "17.2 ± 0.5", "unit": "µg/mL"}, {"measurement": "IC50", "setting": "[3]", "result": "6.4 ± 0.2", "unit": "µg/mL"}, {"measurement": "IC50", "setting": "[4]", "result": "5.7 ± 0.4", "unit": "µg/mL"}, {"measurement": "IC50", "setting": "[5]", "result": "31.1 ± 1.3", "unit": "µg/mL"}]}
{"compound": "COc1cccc2c1C(=O)c1c(O)c3c(c(O)c1C2=O)C[C@@](O)(C(=O)CO)C[C@@H]3O[C@H]1C[C@H](N)[C@H](O)[C@H](C)O1", "note": "[Doxorubicin, reference compound]", "values": [{"measurement": "IC50", "setting": "[1]", "result": "0.05 ± 0.01", "unit": "µg/mL"}, {"measurement": "IC50", "setting": "[11]", "result": "0.58 ± 0.01", "unit": "µg/mL"}, {"measurement": "IC50", "setting": "[12]", "result": "0.33 ± 0.03", "unit": "µg/mL"}, {"measurement": "IC50", "setting": "[2]", "result": "0.4 ± 0.03", "unit": "µg/mL"}, {"measurement": "IC50", "setting": "[3]", "result": "0.24 ± 0.04", "unit": "µg/mL"}, {"measurement": "IC50", "setting": "[5]", "result": "0.18 ± 0.06", "unit": "µg/mL"}]}
